Experimental data as given in patent US12495798B2, “Nicotinamide compound and herbicidal composition comprising compound” (KOREA RESEARCH INSTITUTE OF CHEMICAL TECHNOLOGY, priority 2019, dated 2025).

Assays:
Type in all cases: in vivo
[1] = test system: sorghum; assay: Herbicidal activity test against upland field weeds (foliar treatment test); design: key to Foliar treatment herbicidal activity, Sorghum: 0 (no control); 100 (complete control); conditions: 50 g ai/ha, scale 0-100; for plant injury at 50 g/ha: Sorghum
Outline: (§1)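 Weeds were raised from seed or rootstocks in horticultural soil in a greenhouse (30±5° C., 14/10 h light/dark), then foliage was hand-sprayed with compound at 50 or 75 g a.i./ha in 50% acetone with 0.1% Tween-20. Control was scored visually 0–100 against untreated plants after 14 days, or 21 if needed.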

[2] = test system: crabgrass; assay: as above; design: key to Foliar treatment herbicidal activity, Crabgrass: 0 (no control); 100 (complete control); conditions: 50 g ai/ha, scale 0-100; for pest or weed control at 50 g/ha: Digitaria sanguinalis
Outline: as §1

[3] = test system: indian jointvetch; assay: as above; conditions: 50 g ai/ha, scale 0-100
Outline: as §1

[4] = test system: velvetleaf; assay: as above; design: key to Foliar treatment herbicidal activity, velvet leaf: 0 (no control); 100 (complete control); conditions: 50 g ai/ha; for pest or weed control at 50 g/ha: Abutilon theophrasti, scale 0-100, read-out: Foliar treatment herbicidal activity, velvet leaf
Outline: as §1

[5] = test system: sorghum; assay: Herbicidal activity test against upland field weeds (soil treatment test); design: key to Soil treatment herbicidal activity, Sorghum: 0 (no control); 100 (complete control); conditions: 50 g ai/ha, scale 0 (no control) to 100 (complete control)
Outline: (§2)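 Pre-emergence test: seeds or rootstocks were sown in fertilized sandy loam, and the next day the soil surface was sprayed with compound at 50 or 75 g a.i./ha in 50% acetone/0.1% Tween-20. Plants were grown in a greenhouse (30±5 °C, 14/10 h light/dark), then visually scored 0–100 against untreated at 14 d (21 d if needed).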

[6] = test system: barnyard grass; assay: as above; design: key to Soil treatment herbicidal activity, barnyard grass: 0 (no control); 100 (complete control); conditions: 50 g ai/ha, scale 0 (no control) to 100 (complete control)
Outline: as §2

[7] = test system: quack grass; assay: as above; design: key to Soil treatment herbicidal activity, quack grass: 0 (no control); 100 (complete control); conditions: 50 g ai/ha, scale 0 (no control) to 100 (complete control)
Outline: as §2

[8] = test system: crabgrass; assay: as above; design: key to Soil treatment herbicidal activity, Crabgrass: 0 (no control); 100 (complete control); conditions: 50 g ai/ha, scale 0 (no control) to 100 (complete control)
Outline: as §2

[9] = test system: fall panicum; assay: as above; design: key to Soil treatment herbicidal activity, Fall panicum: 0 (no control); 100 (complete control); conditions: 50 g ai/ha, scale 0 (no control) to 100 (complete control)
Outline: as §2

[10] = test system: corn; assay: Phytotoxicity test for field crops (soil treatment test); design: key: 0 (no harm); 9 (complete withered)
Outline: (§3)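 Crops sown in sterilized horticultural soil (pH 6.1, organic material 1.0%) with mixed fertilizer (N:P:K=17:21:17); one day after sowing, soil sprayed with compound in 33% acetone/0.1% Tween-20 at 19˜300 g a.i./ha. Greenhouse at 30±5° C, 14/10 h light/dark; injury scored visually 0–9 versus untreated control at 10 and 20 days.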

[11] = test system: cotton; assay: as above; design: key: 0 (no harm); 9 (complete withered)
Outline: as §3

[12] = test system: rice; assay: as above; design: key: 0 (no harm); 9 (complete withered)
Outline: as §3

[13] = test system: soybean; assay: as above; design: key: 0 (no harm); 9 (complete withered)
Outline: as §3

[14] = test system: wheat; assay: as above; design: key: 0 (no harm); 9 (complete withered)
Outline: as §3

[15] = 50 g ai/ha, Corn (10 days after treatment)
[16] = 50 g ai/ha, Corn (20 days after treatment)
[17] = 100 g ai/ha, Corn (10 days after treatment)
[18] = 100 g ai/ha, Corn (20 days after treatment)
[19] = 50 g ai/ha, Cotton (10 days after treatment)
[20] = 50 g ai/ha, Cotton (20 days after treatment)
[21] = 100 g ai/ha, Cotton (10 days after treatment)
[22] = 100 g ai/ha, Cotton (20 days after treatment)
[23] = 50 g ai/ha, Rice (10 days after treatment)
[24] = 50 g ai/ha, Rice (20 days after treatment)
[25] = 100 g ai/ha, Rice (10 days after treatment)
[26] = 100 g ai/ha, Rice (20 days after treatment)
[27] = 50 g ai/ha, Soybean (10 days after treatment)
[28] = 50 g ai/ha, Soybean (20 days after treatment)
[29] = 50 g ai/ha, Wheat (10 days after treatment)
[30] = 50 g ai/ha, Wheat (20 days after treatment)
[31] = 100 g ai/ha, Wheat (10 days after treatment)
[32] = 100 g ai/ha, Wheat (20 days after treatment)
[33] = 100 g ai/ha, Soybean (20 days after treatment)

SMILES | Soil treatment herbicidal activity, Sorghum [5] | Soil treatment herbicidal activity, barnyard grass [6] | Soil treatment herbicidal activity, quack grass [7] | Soil treatment herbicidal activity, Crabgrass [8] | Soil treatment herbicidal activity, Fall panicum [9] | Soil treatment phytotoxicity, Corn [10, 15] | Soil treatment phytotoxicity, Corn [10, 16] | Soil treatment phytotoxicity, Corn [10, 17] | Soil treatment phytotoxicity, Corn [10, 18] | Soil treatment phytotoxicity, Cotton [11, 19] | Soil treatment phytotoxicity, Cotton [11, 20] | Soil treatment phytotoxicity, Cotton [11, 21] | Soil treatment phytotoxicity, Cotton [11, 22] | Soil treatment phytotoxicity, Rice [12, 23] | Soil treatment phytotoxicity, Rice [12, 24] | Soil treatment phytotoxicity, Rice [12, 25] | Soil treatment phytotoxicity, Rice [12, 26] | Soil treatment phytotoxicity, Soybean [13, 28] | Soil treatment phytotoxicity, Wheat [14, 29] | Soil treatment phytotoxicity, Wheat [14, 30] | further results
COc1nc(COCc2nc(C(F)(F)F)ccc2C(=O)Nc2nnnn2C)nn1C [Compound No. 2-129, 2-(((5-methoxy-1-methyl-1H-1,2,4-triazol-3-yl)methoxy)methyl)-N-(1-methyl-1H-tetrazol-5-yl)-6-(trifluoromethyl)nicotinamide] | 0 | 0 | 0 | 0 | 0 | 0 | 0 | 0 | 0 | 0 | 0 | 1 | 5 | 5 | 6 | 5 | 7 | 0 | 0 | 0 | plant injury at 50 g/ha [1]: 40%; pest or weed control at 50 g/ha [2]: 70%; pest or weed control at 50 g/ha [3]: 60%; pest or weed control at 50 g/ha [4]: 70%; Soil treatment phytotoxicity, Soybean [13, 27]: 0; Soil treatment phytotoxicity, Wheat [14, 31]: 0; Soil treatment phytotoxicity, Wheat [14, 32]: 0
Cn1nc(COCc2nc(C(F)(F)F)ccc2C(=O)Nc2nnnn2C)nc1Cl [Compound No. 2-135, 2-(((5-chloro-1-methyl-1H-1,2,4-triazol-3-yl)methoxy)methyl)-N-(1-methyl-1H-tetrazol-5-yl)-6-(trifluoromethyl)nicotinamide] | 0 | 0 | 0 | 0 | 0 | 0 | 0 | 0 | 0 | 1 | 3 | 1 | 4 | 6 | 8 | 7 | 8 | 0 | 0 | 0 | plant injury at 50 g/ha [1]: 30%; pest or weed control at 50 g/ha [2]: 70%; pest or weed control at 50 g/ha [3]: 95%; pest or weed control at 50 g/ha [4]: 40%; Soil treatment phytotoxicity, Soybean [13, 27]: 0; Soil treatment phytotoxicity, Soybean ([13]; 100 g ai/ha, Soybean (10 days after treatment)): 2; Soil treatment phytotoxicity, Soybean [13, 33]: 3; Soil treatment phytotoxicity, Wheat [14, 31]: 0; Soil treatment phytotoxicity, Wheat [14, 32]: 0
CCOC(=O)OC(C)n1nnn(C)c1=NC(=O)c1ccc(C(F)(F)F)nc1CSCc1nnn(C)n1 (centres unmarked) [Compound No. 4-10, ethyl (1-(4-methyl-5-((2-((((2-methyl-2H-tetrazol-5-yl)methyl)thio)methyl)-6-(trifluoromethyl)nicotinoyl)imino)-4,5-dihydro-1H-tetrazol-1-yl)ethyl)carbonate] | 40 | 100 | 0 | 100 | 40 | 0 | 0 | 0 | 0 | 0 | 1 | 0 | 2 | 0 | 0 | 0 | 0 | 1 | 0 | 0 | Foliar treatment herbicidal activity, Sorghum [1]: 100; Foliar treatment herbicidal activity, Crabgrass [2]: 100; Foliar treatment herbicidal activity, Indian jointvetch [3]: 98; Foliar treatment herbicidal activity, velvet leaf ([4]; scale 0-100): 100; Soil treatment phytotoxicity, Soybean [13, 33]: 3; Soil treatment phytotoxicity, Wheat [14, 31]: 0; Soil treatment phytotoxicity, Wheat [14, 32]: 0
